According to US20230346961A1, “GLP-1 AND GIP RECEPTOR CO-AGONISTS” (Novo Nordisk A/S, priority 2020, published 2023):
pEC50: −log10 of the molar value. Read-outs that look alike come from different tables or passages of the source. Starred links: 1 amine or outer side, 2 acyl side, 3 side chain; linkers in the order of their positions; H or OH if unused. Non-standard residues stand in square brackets, D forms with d. Residues, ends and D or L forms follow the SMILES beside them. Groups on a side chain read outwards from the residue. *: point of attachment. C20 diacid = O=C(O)CCCCCCCCCCCCCCCCCCC(=O)*; γGlu = O=C(O)[C@H](CCC(=O)[*:2])N[*:1]; εLys = N[C@@H](CCCCN[*:1])C(=O)[*:2]; Trx = NC[C@H]1CC[C@H](C(=O)O)CC1; AEEA = NCCOCCOCC(=O)O; Aib = CC(C)(N)C(=O)O

Assays:
[1] = biological target: human GLP-1 receptor (Homo sapiens, UniProt P43220); assay: cell-based; settings: hGLP-1R
human GLP-1 receptor, sequence (P43220 24-463): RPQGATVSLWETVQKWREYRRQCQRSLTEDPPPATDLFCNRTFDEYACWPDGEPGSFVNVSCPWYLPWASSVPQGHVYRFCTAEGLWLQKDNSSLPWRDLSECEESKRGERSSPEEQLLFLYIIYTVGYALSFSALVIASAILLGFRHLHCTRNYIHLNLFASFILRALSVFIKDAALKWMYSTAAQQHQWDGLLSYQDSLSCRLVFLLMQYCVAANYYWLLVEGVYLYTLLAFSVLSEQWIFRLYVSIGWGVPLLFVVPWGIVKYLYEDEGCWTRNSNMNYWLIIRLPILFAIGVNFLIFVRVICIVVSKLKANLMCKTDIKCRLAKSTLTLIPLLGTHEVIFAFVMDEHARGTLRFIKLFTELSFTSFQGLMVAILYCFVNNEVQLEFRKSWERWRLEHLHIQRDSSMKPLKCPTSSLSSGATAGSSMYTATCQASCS

[2] = biological target: T1, mouse GLP-1 receptor (Mus musculus, UniProt O35659)
T1 sequence (O35659 22-463): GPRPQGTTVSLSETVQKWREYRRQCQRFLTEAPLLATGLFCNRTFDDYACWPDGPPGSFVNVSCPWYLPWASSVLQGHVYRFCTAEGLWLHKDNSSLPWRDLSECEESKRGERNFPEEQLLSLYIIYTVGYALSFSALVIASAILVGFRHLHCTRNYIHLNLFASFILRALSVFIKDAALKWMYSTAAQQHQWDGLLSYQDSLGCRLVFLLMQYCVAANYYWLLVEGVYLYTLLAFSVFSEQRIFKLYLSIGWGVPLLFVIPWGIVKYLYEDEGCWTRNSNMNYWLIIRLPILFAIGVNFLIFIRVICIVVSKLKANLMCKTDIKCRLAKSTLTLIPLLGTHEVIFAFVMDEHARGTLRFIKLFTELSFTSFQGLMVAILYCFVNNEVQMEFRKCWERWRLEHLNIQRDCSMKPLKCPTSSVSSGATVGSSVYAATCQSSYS

[3] = biological target: T2, mouse GIP receptor (Mus musculus, UniProt Q0P543); assay: cell-based
T2 sequence (Q0P543 19-460): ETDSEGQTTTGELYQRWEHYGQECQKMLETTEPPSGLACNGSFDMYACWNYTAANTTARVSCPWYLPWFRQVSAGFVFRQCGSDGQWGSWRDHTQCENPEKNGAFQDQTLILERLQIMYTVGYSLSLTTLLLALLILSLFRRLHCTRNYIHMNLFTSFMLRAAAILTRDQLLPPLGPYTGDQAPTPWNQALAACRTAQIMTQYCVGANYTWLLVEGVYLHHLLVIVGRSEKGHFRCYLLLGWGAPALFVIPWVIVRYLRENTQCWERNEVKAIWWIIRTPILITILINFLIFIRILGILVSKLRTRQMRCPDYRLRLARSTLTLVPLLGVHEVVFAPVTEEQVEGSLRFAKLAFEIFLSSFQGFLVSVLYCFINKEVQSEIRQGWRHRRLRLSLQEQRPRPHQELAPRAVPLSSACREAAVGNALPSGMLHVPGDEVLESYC

[4] = Pharmacokinetic study in minipigs (terminal half-life after i.v. administration); assay type: in vivo; settings: female, Göttingen, minipig, iv
Protocol: The purpose of this example is to determine the half-life in vivo of the derivatives of the present invention after i.v. administration to minipigs, i.e. the prolongation of their time in the body and thereby their time of action. This is done in a pharmacokinetic (PK) study, where the terminal half-life of the derivative in question is determined. By terminal half-life is generally meant the period of time it takes to […] certain plasma concentration, measured after the initial distribution phase. Female Göttingen minipigs were obtained from Ellegaard Göttingen Minipigs (Dalmose, Denmark) approximately 7-14 months of age and weighing from approximately 16-35 kg were used in the studies. The minipigs were housed individually and fed restrictedly once daily with SDS minipig diet (Special Diets Services, Essex, UK). After at 3 weeks of acclimatisation two permanent central venous catheters were implanted in vena cava caudalis in each animal. The animals were allowed 1 week recovery after the surgery, and were then used for repeated pharmacokinetic studies with a suitable wash-out period between successive derivative dosing. The animals were fasted for approximately 18 hours before dosing and from 0 to 4 hours after dosing, but had adlibitum access to water during the whole period. […] Blood samples (for example 0.8 mL) were collected in 8 mM EDTA buffer and then centrifuged at 4° C. and 1942 g for 10 minutes. Plasma was pipetted into Micronic tubes on dry ice and kept at -20° C. until analysed for plasma concentration of the compounds using ELISA, or a similar antibody-based assay, or LCMS. […] (Pharsight Inc., Mountain View, CA, USA), and the resulting terminal half-lives (harmonic mean) determined.

[5] = biological target: human glucagon receptor (Homo sapiens, UniProt P47871); assay: cell-based
human glucagon receptor, sequence (P47871 26-477): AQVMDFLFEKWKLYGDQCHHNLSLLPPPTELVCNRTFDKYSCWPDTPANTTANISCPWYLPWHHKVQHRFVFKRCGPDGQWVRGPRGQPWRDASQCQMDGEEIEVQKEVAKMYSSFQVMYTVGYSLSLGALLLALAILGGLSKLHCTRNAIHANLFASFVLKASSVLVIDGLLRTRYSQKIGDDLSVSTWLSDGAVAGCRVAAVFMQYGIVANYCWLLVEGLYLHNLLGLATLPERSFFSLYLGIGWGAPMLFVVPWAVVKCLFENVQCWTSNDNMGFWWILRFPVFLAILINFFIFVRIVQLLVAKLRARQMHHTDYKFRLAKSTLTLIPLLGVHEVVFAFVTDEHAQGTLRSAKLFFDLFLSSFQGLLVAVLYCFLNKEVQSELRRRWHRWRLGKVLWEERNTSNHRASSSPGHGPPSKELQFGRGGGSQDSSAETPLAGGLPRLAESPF
Protocol: The in vitro functional potency is the measure of target receptor activation in a whole cell assay.
In vitro functional potency was determined by measuring the response of the target receptor in a reporter gene assay in individual cell lines. […] When the respective receptor is activated, it results in the production of cAMP, which in turn results in expression of the luciferase protein. When assay incubation is completed, luciferase substrate (luciferin) is added resulting in the enzymatic conversion of luciferin to oxyluciferin and producing bioluminescence. The luminescence is measured as the readout for the assay.
The cells lines used in these assays were BHK cells with BHKTS13 as a parent cell line. The cell lines were derived from a clone containing the CRE luciferase element and were established by further transfection with the respective receptor to obtain the relevant cell line.
The cells were cultured at 37° C. with 5% CO2 in Cell Culture Medium. They were aliquoted and stored in liquid nitrogen. The cells were kept in continuous culture and were seeded out the day before each assay.
GLP-1R and GcgR Cell Culture Medium consisted of DMEM medium with 10% FBS, 500 μg/mL G418, and 300 μg/mL hygromycin. GIPR Cell Culture Medium consisted of DMEM medium with 10% FBS, 400 μg/mL G418, and 300 μg/mL hygromycin. Assay Buffer consisted of DMEM w/o phenol red, 10 mM Hepes, 1×Glutamax, 1% ovalbumin, and 0.1% Pluronic F-68 with the addition of HSA at twice the final assay concentration.
• 1) Cells were plated at 5000 cells/well and incubated overnight in the assay plate. • 2) Cells were washed once in DPBS. • 3) Stocks of the test compounds and reference compounds in concentrations ranging from 100-300 μM were diluted 1:150 in Assay Buffer. Compounds were then diluted 1:10 in column 1 of a 96 deep well dilution plate and then carried across the row creating a 3.5 fold, 12 point dilution curve. • 4) Assay Buffer (50 μl aliquot) with or without HSA was added to each well in the assay plate. • 5) A 50 μl aliquot of compound or blank was transferred from the dilution plate to the assay plate containing the Assay Buffer with or without HSA. • 6) The assay plate was incubated for 3 h in a 5% CO2 incubator at 37° C. 7) The cells were washed once with DPBS. • 8) A 100 μl aliquot of DPBS was added to each well of the assay plate. • 9) A 100 μl aliquot of steadylite plus reagent (light sensitive) was added to each well of the assay plate. • 10) Each assay plate was covered with aluminum foil to protect it from light and shaken at 250 RPM for 30 min at room temperature. • 11) Each assay plate was read in a microtiter plate reader.
The data from the microtiter plate reader was first regressed in an Excel in order to calculate the x-axis, log scale concentrations based on the individual test compound's stock concentration and the dilutions of the assay. […] The software performs a non-linear regression (log(agonist) vs response). A minimum of two replicates was measured for each sample. The reported values are averages of the replicates.

Structure (SMILES)	pEC50 ([1]; CRE Luc 0% HSA EC50, 0% HSA)	pEC50 ([1]; CRE Luc 1% HSA EC50, 1% HSA)	pEC50 [2]	pEC50 [3]	half-life ([4]; plasma, minipigs, i.v. administration, harmonic mean, read-out: Terminal half-life t1/2 (converted)) [h]	half-life ([4]; in vivo) [h]	pEC50 [5]
CC[C@H](C)[C@H](NC(=O)[C@H](CO)NC(=O)[C@H](Cc1ccc(O)cc1)NC(=O)[C@H](CC(=O)O)NC(=O)[C@H](CO)NC(=O)[C@@H](NC(=O)[C@H](Cc1ccccc1)NC(=O)[C@@H](NC(=O)CNC(=O)[C@H](CCC(=O)O)NC(=O)C(C)(C)NC(=O)[C@@H](N)Cc1ccc(O)cc1)[C@@H](C)O)[C@@H](C)O)C(=O)N[C@@H](Cc1ccc(O)cc1)C(=O)N[C@@H](CC(C)C)C(=O)N[C@@H](CCC(=O)O)C(=O)N[C@@H](CCCCN)C(=O)N[C@@H](CCCCNC(=O)[C@@H](N)CCCCNC(=O)[C@@H](N)CCCCNC(=O)CC[C@H](NC(=O)CCCCCCCCCCCCCCCCCCC(=O)O)C(=O)O)C(=O)N[C@@H](C)C(=O)N[C@@H](C)C(=O)NC(C)(C)C(=O)N[C@@H](CCC(=O)O)C(=O)N[C@@H](Cc1ccccc1)C(=O)N[C@H](C(=O)N[C@@H](CCC(N)=O)C(=O)N[C@@H](Cc1c[nH]c2ccccc12)C(=O)N[C@@H](CC(C)C)C(=O)N[C@@H](CC(C)C)C(=O)N[C@@H](CCC(=O)O)C(=O)NCC(=O)NCC(=O)N1CCC[C@H]1C(=O)N[C@@H](CO)C(=O)N[C@@H](CO)C(=O)NCC(=O)N[C@@H](C)C(=O)N1CCC[C@H]1C(=O)N1CCC[C@H]1C(=O)N1CCC[C@H]1C(=O)N[C@@H](CO)C(N)=O)C(C)C [Compound 35] (H-Y[Aib]EGTFTSDYSIYLEKK([εLys-εLys-γGlu-C20 diacid])AA[Aib]EFVQWLLEGGPSSGAPPPS-NH2; N-terminus assumed)	11.66	9.77	11.89	10.67	90		
CC[C@H](C)[C@H](NC(=O)[C@H](CO)NC(=O)[C@H](Cc1ccc(O)cc1)NC(=O)[C@H](CC(=O)O)NC(=O)[C@H](CO)NC(=O)[C@@H](NC(=O)[C@H](Cc1ccccc1)NC(=O)[C@@H](NC(=O)CNC(=O)[C@H](CCC(=O)O)NC(=O)C(C)(C)NC(=O)[C@@H](N)Cc1ccc(O)cc1)[C@@H](C)O)[C@@H](C)O)C(=O)N[C@@H](Cc1ccc(O)cc1)C(=O)N[C@@H](CC(C)C)C(=O)N[C@@H](CCC(=O)O)C(=O)N[C@@H](CCC(=O)O)C(=O)N[C@@H](CCC(N)=O)C(=O)N[C@@H](C)C(=O)N[C@@H](C)C(=O)NC(C)(C)C(=O)N[C@@H](CCCCNC(=O)[C@@H](N)CCCCNC(=O)[C@@H](N)CCCCNC(=O)CC[C@H](NC(=O)CCCCCCCCCCCCCCCCCCC(=O)O)C(=O)O)C(=O)N[C@@H](Cc1ccccc1)C(=O)N[C@H](C(=O)N[C@@H](CC(N)=O)C(=O)N[C@@H](Cc1c[nH]c2ccccc12)C(=O)N[C@@H](CC(C)C)C(=O)N[C@@H](CC(C)C)C(=O)N[C@@H](C)C(=O)NCC(=O)NCC(=O)N1CCC[C@H]1C(=O)N[C@@H](CO)C(=O)N[C@@H](CO)C(=O)NCC(=O)N[C@@H](C)C(=O)N1CCC[C@H]1C(=O)N1CCC[C@H]1C(=O)N1CCC[C@H]1C(=O)N[C@@H](CO)C(N)=O)C(C)C [Compound 27] (H-Y[Aib]EGTFTSDYSIYLEEQAA[Aib]K([εLys-εLys-γGlu-C20 diacid])FVNWLLAGGPSSGAPPPS-NH2; N-terminus assumed)	11.48	9.71	11.38	9.26		88	
CC[C@H](C)[C@H](NC(=O)[C@H](CO)NC(=O)[C@H](Cc1ccc(O)cc1)NC(=O)[C@H](CC(=O)O)NC(=O)[C@H](CO)NC(=O)[C@@H](NC(=O)[C@H](Cc1ccccc1)NC(=O)[C@@H](NC(=O)CNC(=O)[C@H](CCC(=O)O)NC(=O)C(C)(C)NC(=O)[C@@H](N)Cc1ccc(O)cc1)[C@@H](C)O)[C@@H](C)O)C(=O)N[C@@H](Cc1ccc(O)cc1)C(=O)N[C@@H](CC(C)C)C(=O)N[C@@H](CCC(=O)O)C(=O)N[C@@H](CCCCNC(=O)COCCOCCNC(=O)COCCOCCNC(=O)CC[C@H](NC(=O)CCCCCCCCCCCCCCCCCCC(=O)O)C(=O)O)C(=O)N[C@@H](CCC(N)=O)C(=O)N[C@@H](C)C(=O)N[C@@H](C)C(=O)NC(C)(C)C(=O)N[C@@H](CCC(=O)O)C(=O)N[C@@H](Cc1ccccc1)C(=O)N[C@H](C(=O)N[C@@H](CC(N)=O)C(=O)N[C@@H](Cc1c[nH]c2ccccc12)C(=O)N[C@@H](CC(C)C)C(=O)N[C@@H](CC(C)C)C(=O)N[C@@H](C)C(=O)NCC(=O)NCC(=O)N1CCC[C@H]1C(=O)N[C@@H](CO)C(=O)N[C@@H](CO)C(=O)NCC(=O)N[C@@H](C)C(=O)N1CCC[C@H]1C(=O)N1CCC[C@H]1C(=O)N1CCC[C@H]1C(=O)N[C@@H](CO)C(N)=O)C(C)C [Compound 29] (H-Y[Aib]EGTFTSDYSIYLEK([AEEA-AEEA-γGlu-C20 diacid])QAA[Aib]EFVNWLLAGGPSSGAPPPS-NH2; N-terminus assumed)	11.21	9.37	11.74	10.29			< 8.00
CC[C@H](C)[C@H](NC(=O)[C@H](CO)NC(=O)[C@H](Cc1ccc(O)cc1)NC(=O)[C@H](CC(=O)O)NC(=O)[C@H](CO)NC(=O)[C@@H](NC(=O)[C@H](Cc1ccccc1)NC(=O)[C@@H](NC(=O)CNC(=O)[C@H](CCC(=O)O)NC(=O)C(C)(C)NC(=O)[C@@H](N)Cc1ccc(O)cc1)[C@@H](C)O)[C@@H](C)O)C(=O)N[C@@H](Cc1ccc(O)cc1)C(=O)N[C@@H](CC(C)C)C(=O)N[C@@H](CCC(=O)O)C(=O)N[C@@H](CCCCN)C(=O)N[C@@H](CCCCNC(=O)[C@@H](N)CCCCNC(=O)[C@@H](N)CCCCNC(=O)CC[C@H](NC(=O)[C@H]1CC[C@H](CNC(=O)CCCCCCCCCCCCCCCCCCC(=O)O)CC1)C(=O)O)C(=O)N[C@@H](C)C(=O)N[C@@H](C)C(=O)NC(C)(C)C(=O)N[C@@H](CCC(=O)O)C(=O)N[C@@H](Cc1ccccc1)C(=O)N[C@H](C(=O)N[C@@H](CC(N)=O)C(=O)N[C@@H](Cc1c[nH]c2ccccc12)C(=O)N[C@@H](CC(C)C)C(=O)N[C@@H](CC(C)C)C(=O)N[C@@H](C)C(=O)NCC(=O)NCC(=O)N1CCC[C@H]1C(=O)N[C@@H](CO)C(=O)N[C@@H](CO)C(=O)NCC(=O)N[C@@H](C)C(=O)N1CCC[C@H]1C(=O)N1CCC[C@H]1C(=O)N1CCC[C@H]1C(=O)N[C@@H](CO)C(N)=O)C(C)C [Compound 23] (H-Y[Aib]EGTFTSDYSIYLEKK([εLys-εLys-γGlu-Trx-C20 diacid])AA[Aib]EFVNWLLAGGPSSGAPPPS-NH2; N-terminus assumed)	11.40	9.75	11.43	10.76			< 8.00
